Measured values from patent US5985908A, “MCBI analogs of CC-1065 and the duocarmycins” (The Scripps Research Institute, priority 1998, dated 1999).

Key:
[1] = tested on: w794 DNA (SV40 DNA fragment, 144 bp); assay: DNA alkylation, thermally-induced strand cleavage of w794 DNA; type: biochemical; conditions: for concentration of detectable DNA alkylation, unnatural enantiomers: 72 hours (FIG. 13); for selectivity and efficiency of DNA alkylation, natural enantiomers compared: 25° C., 24 hours, 254 vs 2, 266 vs 1; for concentration of detectable DNA alkylation, natural enantiomers: w794, 25° C., 24 hours (FIG. 17)
Experimental: FIG. 13 illustrates thermally-induced strand cleavage of double-stranded DNA (SV40 DNA fragment, 144 bp, nucleotide no. 5238-138, clone w794) after 72 hours incubation of agent-DNA at 37° C. followed by removal of unbound agent and 30 minutes incubation at 100° C.; 8% denaturing PAGE and autoradiography. Lane 1, control DNA; lanes 2-4, (-)-MCBI-TMI (254, 1×10^-5 to 1×10^-7 M); lanes 5-7, (-)-duocarmycin SA (2, 1×10^-5 to 1×10^-7 M); lanes 8-11, Sanger G, C, A and T reactions; lanes 12-14, (-)-CC-1065 (1, 1×10^-5 to 1×10^-7 M); lanes 15-17, (-)-MCBI-CDPI2 (266, 1×10^-5 to 1×10^-7 M); lanes 18-20, (-)-MCBI-CDPI1 (262, 1×10^-5 to 1×10^-7 M); lanes 21-23 (-)-MCBI-indole2 (258, 1×10^-5 to 1×10^-7 M).
As indicated, the DNA-agent incubation was conducted at 37° C. for 24 or 48 hours, followed by removal of unbound agent and 30 minutes incubation at 100° C.; 8% denaturing PAGE and autoradiography.
FIG. 17 illustrates thermally-induced strand cleavage of double-stranded DNA (SV40 DNA fragment, 144 bp, nucleotide no. 5238-138, clone w794) after 24 hours incubation of agent-DNA at 25° C. followed by removal of unbound agent and 30 minutes incubation at 100° C; 8% denaturing PAGE and autoradiography. Lane 1, control DNA; lanes 2-4, (+)-duocarmycin SA (2, 1×10^-5 to 1×10^-7 M); lanes 5-7, (+)-MCBI-TMI (254, 1×10^-5 to 1×10^-7 M); lanes 8-11, Sanger G, C, A and T reactions; lanes 12-14, (+)-CC-1065 (1, 1×10^-5 to 1×10^-7 M); lanes 15-17, (+)-MCBI-indole2 (258, 1×10^-5 to 1×10^-7 M); lanes 18-20, (+)-MCBI-CDPI2 (266, 1×10^-5 to 1×10^-7 M).
(§1) The DNA alkylation properties of the agents were examined within four 150 base-pair segments of duplex DNA for which comparative results are available for related agents. Four clones of phage M13mp10 were selected for study and contain the SV40 nucleosomal DNA inserts w794 (nucleotide no. 5238-138) and its complement w836 (nucleotide no. 5189-91) and c988 (nucleotide no. 4359-4210) and its complement c820 (nucleotide no. 4201-4356). The alkylation site identification and the assessment of the relative selectivity among the available sites were obtained by thermally-induced strand cleavage of the singly 5'end-labeled duplex DNA after exposure to the agents. Following treatment of the end-labeled duplex DNA with a range of agent concentrations, the unbound agent was removed by EtOH precipitation of the DNA. Redissolution of the DNA in aqueous buffer, thermolysis (100° C., 30 minutes) to induce strand cleavage at the sites of DNA alkylation, denaturing high resolution polyacrylamide gel electrophoresis (PAGE) adjacent to Sanger dideoxynucleotide sequencing standards, and autoradiography led to identification of the DNA cleavage and alkylation sites. The full details of this procedure have been disclosed and discussed elsewhere (10). The DNA alkylation reaction selectivities observed under the incubation conditions of 25° C. (24 hours) for the agents detailed herein have proven identical to the alkylation selectivities observed with shorter or extended reaction periods or when the reactions were conducted at different temperatures (37 or 4° C., 0.5-7 days). As discussed below, the rates and efficiencies but not final relative efficiencies of DNA alkylation were altered by changing the reaction temperatures.

[2] = Solvolysis reactivity (UV), aqueous buffer-CH3OH; type: physicochemical
Experimental: The solvolysis was followed spectrophotometrically by UV with the disappearance of the long-wavelength absorption band of the MCBI chromophore ([…]) and with the appearance of a short-wavelength absorption band (266 nm) attributable to seco-N-BOC-MCBI (FIG. 9).
N-BOC-MCBI (238, 0.1 mg) was dissolved in CH3 OH (1.5 mL) and mixed with pH 3 aqueous buffer (1.5 mL). The buffer contained 4:1:20 (v:v:v) 0.1 M citric acid, 0.2 M Na2 HPO4, and H2 O, respectively. The solvolysis solution was sealed and kept at 25° C. protected from light. The UV spectrum was measured at regular intervals every 2 hours during the first day, every 12 hours for another week, and every 24 hours for an additional week. The decrease in the long-wavelength absorption at 324 nm and the increase in the short-wavelength absorption at 266 nm were monitored, FIG. 1.
Similarly, MCBI (240, 0.1 mg) was dissolved in CH3 OH (1.5 mL) and mixed with […] (1.5 mL). The solvolysis solution was sealed and stirred at 25° C. in the dark. The UV spectrum was recorded every 24 hours for two months. The decrease in the long-wavelength absorption at 340 nm and the increase in absorption at 268 nm were monitored, FIG. 1.

[3] = Solvolysis reactivity (UV), aqueous buffer-CH3OH; type: physicochemical; conditions: pH 7, 1:1 H2O-CH3OH
[4] = tested on: duplex DNA (w794, w836, c988, c820); assay: DNA alkylation selectivity within four 150 base-pair segments of duplex DNA; type: biochemical, SV40
Source text: as §1

L1210 = assay: In vitro cytotoxic activity; type: cell-based
[5] = tested on: w794 5'-AATTA high affinity site; assay: Relative rate of w794 alkylation at the 5'-AATTA high-affinity site; type: biochemical, SV40; conditions: 10^-6 M; for relative rate of DNA alkylation k(254):k(CBI-TMI):k(2): 4° C., 0-48 hours
Experimental: FIG. 15 illustrates a plot of percent integrated optical density (% IOD) versus time established through autoradiography of 5'-^32 P and labeled DNA and used to monitor the relative rate of w794 alkylation at the 5'-AATTA high-affinity site for 1, 254, 258, (+)-CBI-TMI and (+)-DSA-indole2.
Representative of this difficulty in detecting distinguishing relative rates for the three classes of agents, a similar rate comparison of (+)-DSA-indole2 and (+)-MCBI-indole2 (258) conducted at 25° C. […] In sharp contrast, all three kinetically alkylate DNA much faster than the corresponding CPI-based agent (10-50×) where the distinctions are much more pronounced and easily experimentally distinguished.

[6] = tested on: w794 DNA (SV40 DNA fragment, 144 bp); conditions: cited from earlier work

COc1ccc2c(c1)C13CC1CN(C(=O)OC(C)(C)C)C3=CC2=O (stereo not drawn) [Compound 238, N-(tert-Butyloxycarbonyl)-7-methoxy-1,2,9,9a-tetrahydrocyclopropa[c]benz[e]indol-4-one]
alkylation selectivity of N-BOC-MCBI ([1]; both enantiomers, two base-pair AT-rich selectivity): 5'-AA>5'-TA | DNA alkylation efficiency relative to 257-266 ([1]; fold less efficient, both enantiomers): 10^4 × | concentration of detectable DNA alkylation, two enantiomers of N-BOC-MCBI ([1]; w794, 37° C., 24-48 hours (FIG. 16)): 10^-2 to 10^-3 M | acceleration of rate of solvolysis by C7 methoxy group vs. corresponding CBI agent ([2]; acid-catalyzed solvolysis, pH 3): 1.6 × | half-life relative to parent agent N-BOC-CBI (4) ([2]; pH 3): 0.6 times | solvolysis rate constant k ([2]; pH 3, 50% CH3OH-buffer, 25° C.): 2.41e-06 s⁻¹ | half-life ([2]; pH 3, 50% CH3OH-buffer, 25° C., read-out: solvolysis half-life t1/2 (converted)): 80 h | evidence of solvolysis at pH 7 [3]: did not show evidence of solvolysis

COc1ccc2c(c1)C13CC1CN(C(=O)c1cc4cc(OC)c(OC)c(OC)c4[nH]1)C3=CC2=O (stereo not drawn) [Compound 254]
AT-rich alkylation selectivity, size of site, natural enantiomers [4]: 3.5 base-pair | concentration of detectable DNA alkylation, unnatural enantiomers ([1]; w794, 37° C.): 10^-5 M | enantiomer distinction (in words) (L1210; natural vs unnatural enantiomer, listed as MCBI-TMI): analogous distinctions but somewhat smaller than those observed with CBI-TMI

COc1ccc2c(c1)[C@@]13C[C@@H]1CN(C(=O)c1cc4cc(OC)c(OC)c(OC)c4[nH]1)C3=CC2=O [(+)-MCBI-TMI]
relative rate of DNA alkylation k(254):k(CBI-TMI):k(2) [5]: 1.8 | selectivity and efficiency of DNA alkylation, natural enantiomers compared [1]: indistinguishable | concentration of detectable DNA alkylation, natural enantiomers [1]: 10^-6 to 10^-7 M | cytotoxic potency of natural enantiomer relative to unnatural enantiomer (L1210; fold, natural more potent than unnatural): 50 ×

COc1cc2cc(C(=O)N3C[C@@H]4C[C@]45C3=CC(=O)c3ccccc35)[nH]c2c(OC)c1OC [(-)-CBI-TMI]
DNA alkylation distinction between (-)-CBI-TMI and ent-(-)-duocarmycin SA ([6]; prior comparison): 10 ×

COc1cc2cc(C(=O)N3C[C@H]4C[C@@]45C3=CC(=O)c3ccccc35)[nH]c2c(OC)c1OC [(+)-CBI-TMI]
relative rate of DNA alkylation k(254):k(CBI-TMI):k(2) [5]: 1.0

COC(=O)c1cc2c([nH]1)C(=O)C=C1N(C(=O)c3cc4cc(OC)c(OC)c(OC)c4[nH]3)CC3CC123 (single isomer, unassigned; (+)) [(+)-duocarmycin SA, reference compound]
relative rate of DNA alkylation k(254):k(CBI-TMI):k(2) [5]: 0.9 | AT-rich alkylation selectivity, size of site, natural enantiomers [4]: 3.5 base-pair | selectivity and efficiency of DNA alkylation, natural enantiomers compared [1]: indistinguishable | concentration of detectable DNA alkylation, natural enantiomers [1]: 10^-6 to 10^-7 M | concentration of detectable DNA alkylation, unnatural enantiomers ([1]; w794, 37° C.): 10^-5 M

COC(=O)c1cc2c([nH]1)C(=O)C=C1N(C(=O)c3cc4cc(NC(=O)c5cc6ccccc6[nH]5)ccc4[nH]3)C[C@H]3C[C@]123 [(+)-DSA-indole2]
relative rate k(DSA-indole2)/k(MCBI-indole2) ([5]; 25° C., 0-24 hours): 1.05

CC(C)(C)OC(=O)N1C[C@H]2C[C@@]23C1=CC(=O)c1ccccc13 [(+)-N-BOC-CBI]
relative efficiency of DNA alkylation, natural/unnatural enantiomer (earlier agent) ([6]; (+)-N-BOC-CBI/ent-(-)-N-BOC-CBI): 5-10 ×
